In patent US7399639B2, “Sensors, and methods of making and using the same” (Massachusetts Institute of Technology, priority 2003, dated 2008):
Several values for one entry are separate records, joined by “and”; a condition that tells them apart may be missing. Equal values may be shown once. Read-outs that look alike come from different tables or passages of the source.

Assays:
[1] = Quantum yields / fluorescence emission against fluorescein standard; assay type: physicochemical; settings: for λmax (Em, nm): HEPES 50 mM, pH 7.5, KCl 100 mM; for Φ: fluorescein standard
Experimental: (§1) The above results were obtained using the following experimental methods. For all fluorescence experiments, the glassware was washed sequentially with 20% HNO3, deionized water, and ethanol before use. Purified water (resistivity […]) was obtained from a Millipore Milli-Q water purification system. Fluorophore stock solutions in DMSO were made up to concentrations of 1 mM and kept at 4° C. in 100-500 μL aliquots. Portions were thawed and diluted to the required concentrations immediately prior to each experiment. Fluorescence and absorption data were acquired in HEPES buffer (50 mM, pH 7.5, KCl 100 mM) except where otherwise noted. Solutions were transferred to clean, dry propylene containers for storage, and filtered through 0.25 μm syringe filters before data acquisition. Fluorescence spectra were measured from 475 nm to 650 nm. All measurements were performed in triplicate.
Quantum Yields. Quantum yields were calculated by recording UV-vis spectra of the fluorophore under study and a 1 μM fluorescein standard in 0.1 N NaOH to determine the wavelength where sample and fluorescein absorption were equal. The fluorescence spectrum of each was then recorded, exciting at the wavelength determined by uv-vis spectra comparison. The integrated emission of the sample was normalized to the fluorescein standard and multiplied by the standard quantum yield of 0.95. Brannon, J. H.; Magde, D. J. Phys. Chem. 1978, 82, 705-709.

[2] = Extinction coefficients / absorption spectra in HEPES buffer; assay type: physicochemical; settings: for λmax (Abs, nm): HEPES 50 mM, pH 7.5, KCl 100 mM
Experimental: as §1
Extinction Coefficients. A 2 mL portion of HEPES buffer was titrated with 2 μL aliquots of 1 mM fluorophore stock solution and the absorption measured at each concentration. The absorbance at the maximum was plotted as a function of concentration, and the slope was taken as the extinction coefficient. The procedure was repeated using 1.9 mL portions of HEPES buffer containing 100 μL aliquots of 10 mM ZnCl2 solution.

[3] = tested on: HeLa cells; test: Cell permeability studies using Zn-pyrithione, fluorescence microscopy; assay type: cell-based; settings: 5 μM ligand 30 min RT, 10 μM Zn^2+-pyrithione
Experimental: FIG. 10 depicts phase contrast (A) and fluorescence microscopy (B) visualization of HeLa cells treated with the ligands of Formula 101, 103, and 31 in the absence of zinc. Cells were bathed in 5 μM ligand for 30 min at RT, followed by untreated PBS for 10 min.
FIG. 11 depicts phase contrast (A) and fluorescence microscopy (B) visualization of HeLa cells treated with the ligands of Formula 101, 103, and 31 in the presence of zinc. Cells were bathed in 5 μM ligand for 30 min at RT, followed by 10 μM Zn^2+-pyrithione.
FIG. 12 depicts phase contrast (A) and fluorescence microscopy (B) visualization of HeLa cells treated with the ligands of Formula 100, 102, and 31 in the absence of zinc. Cells were bathed in 5 μM ligand for 30 min at RT, followed by untreated PBS for 10 min.
FIG. 13 depicts phase contrast (A) and fluorescence microscopy (B) visualization of HeLa cells treated with the ligands of Formula 100, 102, and 31 in the presence of zinc. Cells were bathed in 5 μM sensor for 30 min at RT, followed by 10 μM Zn^2+-pyrithione.

[4] = reported elsewhere; cited from earlier work
[5] = metal-free; reported elsewhere; cited from earlier work
[6] = Protonation constants that affect fluorescence of Zinpyr dyes; assay type: physicochemical; settings: for pKa: aqueous solution of 100 mM KCl, 10 mM KOH, Zinpyr-6 value estimated from preliminary results
Experimental: Studies of Protonation Constants that Effect Fluorescence. The apparent protonation constants that affect fluorescence are determined by plotting the integrated emission intensity versus pH from ˜12.5 to 2. In a typical experiment, a 30 mL solution of 1 μM Zinpyr in 100 mM KCl, 10 mM KOH is adjusted to pH 12.5 by drop-wise addition of KOH. Aliquots of 6 N, 2 N, 1 N, 0.5 N, 0.5 N, 0.1 N, and 0.01 N HCl are added to achieve pH changes of approximately […], and the emission spectrum is gathered at each interval. The overall volume change for each experiment is monitored so as not to exceed ˜3%. Excitation is provided at 498 nm for Zinpyr-5 and at 500 nm for Zinpyr-6. Data is integrated from 505 nm to 650 nm, normalized and plotted against pH. The data were fit to the non-linear expression previously described. Godwin, H. A.; Berg, J. M. J. Am. Chem. Soc. 1996, 118, 6514-6515.

[7] = Quantum yield and emission measurements of Zinpyr dyes; assay type: physicochemical
Experimental: (§2) General Spectroscopic Methods. PIPES (piperazine-N,N′-bis(2-ethanesulfonic acid) from Calbiochem, KCl (99.997%), and ZnCl2 (99.999%) are purchased and used as received. All experiments for this Example Eight, with the exception of the pKa experiment, are conducted under stimulated physiological conditions using 50 mM PIPES, 100 mM KCl adjusted to pH 7 via drop-wise addition of KOH. Millipore water is used for all aqueous solutions, which are filtered through a 0.2 μm cellulose filter prior to use (buffered dye solutions should not be put through the filters because the dyes will get stuck). An Orion glass electrode, which is calibrated prior to each use, is used to determine solution pH. The accuracy of each micropipette is verified prior to use. Zinc solutions are prepared from 100 mM and 10 mM stock solutions in water (pH 5). The concentrations of the stock solutions is verified by spectrophotometric titration with 2,2′:6′,2″-terpyridine, which is was performed a minimum of three times per solution. In a typical titration, 0.5 μL aliquots of a 10 mM (nominal) Zn(II) solution in water is added to a 10 μM solution of terpyridine in 50 mM PIPES, 100 mM KCl, pH 7 prepared from a 100 mM stock solution in DMSO. The equivalence point at 321 nm and at 291 nm is determined and used to calculate the Zn(II) concentration. Stock solutions of Zinpyr-5 (0.76 mM) and Zinpyr-6 (0.41 mM) in DMSO are prepared, stored at −25° C., and thawed in the dark immediately prior to use. All spectral data are manipulated with the KaleidaGraph software package.
Fluorescence Spectroscopy. Emission spectra are obtained using a Hitachi F-3010 spectrofluorimeter linked to a Pentium PC running the SpectraCalc software package. A 150 W Xe lamp (Ushio Inc.) operating at a current of 5 A provides the excitation. A rhodamine quantum counter is used to normalize the spectra for excitation intensity, and manufacturer-supplied correction curves are used to normalize the emission spectra. Manufacturer supplied photomultiplier curves are used to correct for emission intensity. A circulating water bath is used during all experiments to regulate the temperature at 25.0° C.±0.1° C. All spectra are obtained using 3 nm slit widths and a 240 nm/min scan speed, and all samples are contained in a 1 cm×1 cm quartz cuvette with a 3.5 mL volume. All measurements are made in triplicate, with the exception of the Zinpyr-6 pKa titration, and on different days to assure the authenticity of the results.
Quantum Yield Measurements. The quantum yields of Zinpyr-5 and Zinpyr-6 are determined using a solution of fluorescein in 0.1 N NaOH (φ=0.95) as a reference. In a typical experiment, a 6 mL solution of 1 μM Zinpyr is prepared. For metal-free studies, 6 μL of 100 mM K4EDTA is added to chelate any adventitious metal ions. To determine the quantum efficiencies of the metal-bound dyes, either 2 μL (Zinpyr-5) or 6 μL (Zinpyr-6) of a 100 mM ZnCl2 stock solution is added to a 1 μM Zinpyr solution. The concentration of the reference solution is adjusted to match the excitation spectra of the Zinpyr dye, and the appropriate excitation wavelength is determined from where the reference and probe excitation spectra intersect. Excitation is provided at 497 nm (Zinpyr-5 and Zinpyr-6, metal-free), 491 nm (Zinpyr-5, metal-bound), or 493 (Zinpyr-6, metal-bound). Emission spectra are integrated from 450-650 nm and the quantum yields were calculated using the standard equation. Godwin, H. A.; Berg, J. M. J. Am. Chem. Soc. 1996, 118, 6514-6515.

[8] = Metal ion selectivity measurements of Zinpyr dyes; settings: 1 μM Zinpyr, divalent first-row transition metals and Cd(II)
Experimental: Metal Ion Selectivity Measurements. The metal ion selectivity of Zinpyr-5 and Zinpyr-6 for a number of divalent first-row transition metals, in addition to cadmium, is investigated using fluorescence spectroscopy. Aqueous metal ion solutions for Ca(II), Mg(II), Mn(II), Co(II), Ni(II) and Cd(II) are prepared from the chloride salts and Millipore water. The Cu(II) solution are prepared from copper sulfate and Fe(II) solutions are prepared immediately before use with ferrous ammonium sulfate and Millipore water that was thoroughly purged with Ar. In a typical experiment, 15 μL of a ˜10 mM metal solution is added to a 1 μM Zinpyr solution (3 mL) and the emission spectra is recorded with excitation at 498 nm (Zinpyr-5) or 500 nm (Zinpyr-6). […] of 10 mM ZnCl2 is then added and the emission spectra is obtained. The spectra are integrated from 505-650 nm (Zinpyr-5) or 450-650 nm (Zinpyr-6) and normalized.

[9] = Zn(II) binding studies (fluorescence spectroscopy), dual-metal buffering system, Zinpyr dyes; settings: titration with dual-metal buffering system, 0.17 nM to 25 nM free Zn(II)
Experimental: General Spectroscopic Methods. PIPES (piperazine-N,N′-bis(2-ethanesulfonic acid) from Calbiochem, KCl (99.997%), and ZnCl2 (99.999%) are purchased and used as received. All experiments for this Example Eight, with the exception of the pKa experiment, are conducted under stimulated physiological conditions using 50 mM PIPES, 100 mM KCl adjusted to pH 7 via drop-wise addition of KOH. Millipore water is used for all aqueous solutions, which are filtered through a 0.2 μm cellulose filter prior to use (buffered dye solutions should not be put through the filters because the dyes will get stuck). An Orion glass electrode, which is calibrated prior to each use, is used to determine solution pH. The accuracy of each micropipette is verified prior to use. Zinc solutions are prepared from 100 mM and 10 mM stock solutions in water (pH 5). […] The equivalence point at 321 nm and at 291 nm is determined and used to calculate the Zn(II) concentration. […]
Zn(II) Binding Studies (Fluorescence Spectroscopy). The dissociation constants, Kd, for Zn(II) binding were determined using a dual-metal buffering system, which affords concentrations of free Zn(II) in the nM range. […] The response was quantified by integrating the emission intensity from 505-650 nm and normalizing. […]
The binding affinities for Zinpyr-5 and Zinpyr-6 were determined using the dual-metal buffering system previously described. […]

[10] = UV-visible spectroscopy of Zinpyr dyes (excitation maxima, molar absorptivity); assay type: physicochemical; settings: for ε: at excitation maximum
Experimental: as §2
UV-Visible Spectroscopy. Excitation spectra are obtained using a Cary IE scanning spectrophotometer controlled by a Pentium PC running the manufacturer supplied software program. A circulating water bath is used during all acquisitions to maintain the temperature at 25.0° C.±0.1° C. All data are collected using a 600 nm/min scan speed and a 1 nm data interval. […] Molar absorptivity values are determined from a minimum of three titrations over a concentration range of 10 μM to 1 μM. […]

[11] = Affinity of compound 30 for Zn2+; assay type: binding
[12] = metal-free, 50 mM PIPES, 100 mM KCl, pH 7

In the case of `O=C(O)c1ccc2c(c1)C(=O)OC21c2cc(Cl)c(O)c(CN(Cc3ccccn3)Cc3ccccn3)c2Oc2c1cc(Cl)c(O)c2CN(Cc1ccccn1)Cc1ccccn1` [Formula 101], the Brightness ([1]; +Zn^2+ complex) is reported as 5.5 × 10^4, the “λmax (Em, nm)” value ([1]; +Zn^2+ complex) is reported as 532 nm and the Φ ([1]; +Zn^2+ complex) is reported as 0.62. For the same molecule, the Brightness ([1]; free ligand) was 1.4 × 10^4, the “λmax (Em, nm)” value ([1]; free ligand) was 536 nm and the Φ ([1]; free ligand) was 0.17. For the same molecule, the εmax ([2]; +Zn^2+ complex) was 88000 M⁻¹ cm⁻¹, the “λmax (Abs, nm)” value ([2]; +Zn^2+ complex) was 509 nm and the εmax ([2]; free ligand) was 81000 M⁻¹ cm⁻¹. For the same molecule, the “λmax (Abs, nm)” value ([2]; free ligand) was 520 nm and the uptake into cells [3] was “not taken up by the cell”.

In the case of `COc1ccc(NCc2c(O)ccc3c(-c4ccccc4C(=O)O)c4cc(Cl)c(=O)cc-4oc23)c(CN(Cc2ccccn2)Cc2ccccn2)c1` [Zinpyr-3], the “fluorescence change upon addition of Zn(II)” value [4] is listed as “negligible” and the quantum efficiency [5] is listed as 0.04.

With `O=C(O)c1ccccc1-c1c2cc(Cl)c(=O)cc-2oc2c(CNc3ccc(Cl)cc3CN(Cc3ccccn3)Cc3ccccn3)c(O)ccc12` [Zinpyr-6] the “pH at which maximum emission is reached” value ([6]; Zinpyr-6 data preliminary) was roughly 5, the pKa ([6]; read-out: apparent pKa, first protonation event (fluorescence enhancement; tertiary amine)) was roughly 10 and the pKa ([6]; read-out: apparent pKa, second protonation event (fluorescence enhancement; aniline nitrogen)) was roughly 6.4. The pKa ([6]; read-out: apparent pKa, third protonation event (fluorescence quenching)) was roughly 4.6, the “increase in brightness upon Zn(II) coordination” value [7] was 3.8 fold and 3.7 fold and the “increase in quantum efficiency upon addition of excess Zn(II)” value [7] was 3.4 fold. For the same molecule, the “brightness (φ×ε)” value ([7]; Zn(II) bound) was 33,000 M^−1 cm^−1, the emission maximum ([7]; Zn(II) bound) was 515 nm and the quantum efficiency ([7]; Zn(II) bound) was 0.34. The “brightness (φ×ε)” value ([7]; metal-free) was 8,900 M^−1 cm^−1, the emission maximum [7, 12] was 519 nm and the quantum efficiency [7, 12] was 0.10. The metal ion selectivity [8] was “Zn(II) and Cd(II) selective”, the “increase in integrated emission” value [9] was 2.5- to 3 fold and ~3 fold and the excitation maximum ([10]; Zn(II) bound) was 495 nm. The ε ([10]; Zn(II) bound) was 98,000 M^−1 cm^−1 and the ε ([10]; metal-free) was 88,600 M^−1 cm^−1.

For `O=C(O)c1ccccc1-c1c2cc(Cl)c(=O)cc-2oc2cc(N(Cc3ccccn3)Cc3ccccn3)ccc12` [compound 30, 9-(o-Carboxyphenyl)-2-chloro-6-[bis(2-pyridylmethyl)amino]-3-xanthanone], the “affinity for Zn^2+” value [11] was “weak”.
